Data reported in US9765060B2 (Gilead Sciences, Inc., priority 2014, dated 2017).

What follows are compounds tested against PI3K isoform δ (Homo sapiens (Human), UniProt O00329) (assay: TR-FRET assay of enzymatic activity of class I PI3K isoforms). Settings: not given.
PI3K isoform δ, sequence (O00329 whole entry, canonical isoform): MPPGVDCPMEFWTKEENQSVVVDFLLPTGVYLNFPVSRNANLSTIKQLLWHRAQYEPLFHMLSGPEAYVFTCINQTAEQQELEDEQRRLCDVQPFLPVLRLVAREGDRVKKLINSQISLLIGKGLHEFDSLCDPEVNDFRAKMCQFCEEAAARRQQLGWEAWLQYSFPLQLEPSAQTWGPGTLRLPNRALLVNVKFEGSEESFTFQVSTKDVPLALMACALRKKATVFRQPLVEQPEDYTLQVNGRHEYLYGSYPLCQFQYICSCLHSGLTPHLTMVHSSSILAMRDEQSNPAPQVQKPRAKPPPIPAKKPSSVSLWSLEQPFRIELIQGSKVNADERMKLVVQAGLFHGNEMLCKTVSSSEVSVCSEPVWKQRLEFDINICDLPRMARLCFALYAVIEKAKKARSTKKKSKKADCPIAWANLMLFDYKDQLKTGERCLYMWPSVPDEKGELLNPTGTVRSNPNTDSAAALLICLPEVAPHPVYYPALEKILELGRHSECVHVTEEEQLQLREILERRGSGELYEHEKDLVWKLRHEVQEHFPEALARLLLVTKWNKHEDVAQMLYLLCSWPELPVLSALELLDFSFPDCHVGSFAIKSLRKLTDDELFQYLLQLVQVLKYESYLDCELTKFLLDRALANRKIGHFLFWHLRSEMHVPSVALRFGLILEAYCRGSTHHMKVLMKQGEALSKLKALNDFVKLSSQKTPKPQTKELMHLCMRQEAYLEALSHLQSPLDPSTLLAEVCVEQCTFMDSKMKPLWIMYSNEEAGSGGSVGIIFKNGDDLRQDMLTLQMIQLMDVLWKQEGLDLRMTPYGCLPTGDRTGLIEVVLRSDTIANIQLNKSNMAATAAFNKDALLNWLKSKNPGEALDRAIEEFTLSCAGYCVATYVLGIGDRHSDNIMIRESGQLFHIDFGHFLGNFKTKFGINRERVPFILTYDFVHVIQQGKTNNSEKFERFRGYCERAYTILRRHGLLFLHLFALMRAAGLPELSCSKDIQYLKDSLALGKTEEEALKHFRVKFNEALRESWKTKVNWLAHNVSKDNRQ
PI3K isoform δ, sequence (P27986 whole entry partner, canonical isoform): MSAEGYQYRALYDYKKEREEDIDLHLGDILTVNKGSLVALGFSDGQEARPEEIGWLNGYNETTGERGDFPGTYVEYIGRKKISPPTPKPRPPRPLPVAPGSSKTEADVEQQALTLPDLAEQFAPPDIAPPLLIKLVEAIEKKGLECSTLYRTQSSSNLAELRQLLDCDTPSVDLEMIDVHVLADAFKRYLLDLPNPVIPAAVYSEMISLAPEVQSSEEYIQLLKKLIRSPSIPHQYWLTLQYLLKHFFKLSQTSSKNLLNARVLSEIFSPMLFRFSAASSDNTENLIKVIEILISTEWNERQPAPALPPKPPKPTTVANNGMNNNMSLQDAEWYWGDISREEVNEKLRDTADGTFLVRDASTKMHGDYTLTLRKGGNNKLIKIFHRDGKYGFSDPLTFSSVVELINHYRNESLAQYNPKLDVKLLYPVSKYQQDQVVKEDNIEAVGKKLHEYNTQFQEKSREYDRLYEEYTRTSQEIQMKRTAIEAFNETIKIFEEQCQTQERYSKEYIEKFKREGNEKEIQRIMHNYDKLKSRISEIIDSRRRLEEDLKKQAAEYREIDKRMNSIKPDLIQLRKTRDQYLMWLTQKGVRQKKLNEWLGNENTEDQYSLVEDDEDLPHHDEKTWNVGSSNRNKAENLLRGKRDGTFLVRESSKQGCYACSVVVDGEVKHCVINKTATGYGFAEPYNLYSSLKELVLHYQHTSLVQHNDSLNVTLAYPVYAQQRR

SMILES	IC50 [nM]
CO[C@H]1C[C@@H](c2nc3cccc(Cl)c3c(=O)n2-c2cc(F)cc(F)c2)N(c2nc(N)nc(N)c2C#N)C1 [Compound 19, 2,4-diamino-6-((2S)-2-(5-chloro-3-(3,5-difluorophenyl)-4-oxo-3,4-dihydroquinazolin-2-yl)-4-methoxypyrrolidin-1-yl)pyrimidine-5-carbonitrile]	9

Same assay, conditions: read-out: IC50 (nM) for PI3K isoform δ (Table 2); TR-FRET; 2× Km ATP, 2 μM PIP2; incubated for 30 minutes at 25° C.

SMILES	IC50 [nM]
Cc1cccc2nc([C@@H](Nc3nc(N)nc(N)c3C#N)C3CC3)n(-c3cc(F)cc(C#N)c3)c(=O)c12 [Compound 11a, (S)-2,4-diamino-6-(((3-(3-cyano-5-fluorophenyl)-5-methyl-4-oxo-3,4-dihydroquinazolin-2-yl)(cyclopropyl)methyl)amino)pyrimidine-5-carbonitrile]	14
CN(C)C(=O)C[C@H](Nc1nc(N)nc(N)c1C#N)c1nc2cccc(Cl)c2c(=O)n1-c1ccccc1 [Compound 10a, (S)-3-(5-chloro-4-oxo-3-phenyl-3,4-dihydroquinazolin-2-yl)-3-((2,6-diamino-5-cyanopyrimidin-4-yl)amino)-N,N-dimethylpropanamide]	2
N#Cc1c(N)nc(N)nc1N[C@H](c1nc2c(F)ccc(C#N)c2c(=O)n1-c1ccccc1)C1CC1 [Compound 2a, (S)-2-(cyclopropyl((2,6-diamino-5-cyanopyrimidin-4-yl)amino)methyl)-8-fluoro-4-oxo-3-phenyl-3,4-dihydroquinazoline-5-carbonitrile]	10
N#Cc1c(N)nc(N)nc1N[C@H](c1nc2ccc(F)cc2c(=O)n1-c1cccc(F)c1)C1CC1 [Compound 16a, (S)-2,4-diamino-6-((cyclopropyl(6-fluoro-3-(3-fluorophenyl)-4-oxo-3,4-dihydroquinazolin-2-yl)methyl)amino)pyrimidine-5-carbonitrile]	4
Cc1cccc2nc([C@@H](Nc3nc(N)nc(N)c3C#N)C3CC3)n(-c3cc(F)cc(F)c3)c(=O)c12 [Compound 12a, (S)-2,4-diamino-6-((cyclopropyl(3-(3,5-difluorophenyl)-5-methyl-4-oxo-3,4-dihydroquinazolin-2-yl)methyl)amino)pyrimidine-5-carbonitrile]	1

Same assay, conditions: read-out: IC50 (nM) for PI3K isoform δ (Table 3); TR-FRET; 2× Km ATP, 2 μM PIP2; incubated for 30 minutes at 25° C.

SMILES	IC50 [nM]
N#Cc1c(N)nc(N)nc1N1CCC[C@H]1c1nc2cccc(Cl)c2c(=O)n1-c1cc(F)cc(F)c1 [Compound 83, (S)-2,4-diamino-6-(2-(5-chloro-3-(3,5-difluorophenyl)-4-oxo-3,4-dihydroquinazolin-2-yl)pyrrolidin-1-yl)pyrimidine-5-carbonitrile]	2
Cc1nccn1CCOc1cccc2nc([C@H](C)Nc3nc(N)nc(N)c3C#N)n(-c3ccccc3)c(=O)c12 [Compound 32, (S)-2,4-diamino-6-((1-(5-(2-(2-methyl-1H-imidazol-1-yl)ethoxy)-4-oxo-3-phenyl-3,4-dihydroquinazolin-2-yl)ethyl)amino)pyrimidine-5-carbonitrile]	85
C[C@H](Nc1nc(N)nc(N)c1C#N)c1nc2cccc(CCCN3CCCCC3)c2c(=O)n1-c1ccccc1 [Compound 46, (S)-2,4-diamino-6-((1-(4-oxo-3-phenyl-5-(3-(piperidin-1-yl)propyl)-3,4-dihydroquinazolin-2-yl)ethyl)amino)pyrimidine-5-carbonitrile]	0.4
Cc1ccc(Cl)c2c(=O)n(-c3cc(F)cc(F)c3)c([C@@H]3CCCN3c3nc(N)nc(N)c3C#N)nc12 [Compound 84, (S)-2,4-diamino-6-(2-(5-chloro-3-(3,5-difluorophenyl)-8-methyl-4-oxo-3,4-dihydroquinazolin-2-yl)pyrrolidin-1-yl)pyrimidine-5-carbonitrile]	4
N#Cc1c(N)nc(N)nc1N1CCC[C@H]1c1nc2cccc(F)c2c(=O)n1-c1cc(F)cc(F)c1 [Compound 87, (S)-2,4-diamino-6-(2-(3-(3,5-difluorophenyl)-5-fluoro-4-oxo-3,4-dihydroquinazolin-2-yl)pyrrolidin-1-yl)pyrimidine-5-carbonitrile]	23
CC(Cc1cccc2nc([C@H](C)Nc3nc(N)nc(N)c3C#N)n(-c3ccccc3)c(=O)c12)N1CCCC1 (stereo partly drawn) [Compound 45, (S)-2,4-diamino-6-((1-(4-oxo-3-phenyl-5-(2-(pyrrolidin-1-yl)propyl)-3,4-dihydroquinazolin-2-yl)ethyl)amino)pyrimidine-5-carbonitrile]	0.7
C[C@H](Nc1nc(N)nc(N)c1C#N)c1nc2cccc(OCCN3CCN(c4ccccc4)CC3)c2c(=O)n1-c1ccccc1 [Compound 31, (S)-2,4-diamino-6-((1-(4-oxo-3-phenyl-5-(2-(4-phenylpiperazin-1-yl)ethoxy)-3,4-dihydroquinazolin-2-yl)ethyl)amino)pyrimidine-5-carbonitrile]	4
C[C@H](Nc1nc(N)nc(N)c1C#N)c1nc2cccc(S(=O)(=O)CCN3CCCC3)c2c(=O)n1-c1cccc(F)c1 [Compound 82, (S)-2,4-diamino-6-((1-(3-(3-fluorophenyl)-4-oxo-5-((2-(pyrrolidin-1-yl)ethyl)sulfonyl)-3,4-dihydroquinazolin-2-yl)ethyl)amino)pyrimidine-5-carbonitrile]	2
C[C@H](Nc1nc(N)nc(N)c1C#N)c1nc2c(F)ccc(CCC(N)=O)c2c(=O)n1-c1cc(F)cc(F)c1 [Compound 39, (S)-3-(2-(1-((2,6-diamino-5-cyanopyrimidin-4-yl)amino)ethyl)-3-(3,5-difluorophenyl)-8-fluoro-4-oxo-3,4-dihydroquinazoline-5-yl)propanamide]	2
C[C@H](Nc1nc(N)nc(N)c1C#N)c1nc2cccc(CCCN3CCC(F)(F)CC3)c2c(=O)n1-c1ccccc1 [Compound 48, (S)-2,4-diamino-6-((1-(5-(3-(4,4-difluoropiperidin-1-yl)propyl)-4-oxo-3-phenyl-3,4-dihydroquinazolin-2-yl)ethyl)amino)pyrimidine-5-carbonitrile]	0.5
C[C@H](Nc1nc(N)nc(N)c1C#N)c1nc2cccc(OCCC3CCCN3C)c2c(=O)n1-c1ccccc1 (stereo partly drawn) [Compound 33, 2,4-diamino-6-(((1S)-1-(5-(2-(1-methylpyrrolidin-2-yl)ethoxy)-4-oxo-3-phenyl-3,4-dihydroquinazolin-2-yl)ethyl)amino)pyrimidine-5-carbonitrile]	24
C[C@H](Nc1nc(N)nc(N)c1C#N)c1nc2cccc(S(=O)(=O)CCO)c2c(=O)n1-c1cccc(F)c1 [Compound 78, (S)-2,4-diamino-6-((1-(3-(3-fluorophenyl)-5-((2-hydroxyethyl)sulfonyl)-4-oxo-3,4-dihydroquinazolin-2-yl)ethyl)amino)pyrimidine-5-carbonitrile]	9
N#Cc1c(N)nc(N)nc1N1CC[C@H]1c1nc2cccc(Cl)c2c(=O)n1-c1ccccc1 [Compound 68, (S)-2,4-diamino-6-(2-(5-chloro-4-oxo-3-phenyl-3,4-dihydroquinazolin-2-yl)azetidin-1-yl)pyrimidine-5-carbonitrile]	30
C[C@H](Nc1nc(N)nc(N)c1C#N)c1nc2cccc(OCCN3CCCC3)c2c(=O)n1-c1ccccc1 [Compound 24, (S)-2,4-diamino-6-((1-(4-oxo-3-phenyl-5-(2-(pyrrolidin-1-yl)ethoxy)-3,4-dihydroquinazolin-2-yl)ethyl)amino)pyrimidine-5-carbonitrile]	10
